Reference: the Kinase Knowledgebase extract (Sharma et al. 2016)
Values after ≈ are worked out from the molar mass of the structure shown. Values joined by “and” are separate entries in the source; they are usually repeats but may differ in a detail not shown here. Equal values may be shown once.

What follows are compounds tested against EGFR (UniProt P00533).
Sequence of EGFR (P00533 whole entry, looked up): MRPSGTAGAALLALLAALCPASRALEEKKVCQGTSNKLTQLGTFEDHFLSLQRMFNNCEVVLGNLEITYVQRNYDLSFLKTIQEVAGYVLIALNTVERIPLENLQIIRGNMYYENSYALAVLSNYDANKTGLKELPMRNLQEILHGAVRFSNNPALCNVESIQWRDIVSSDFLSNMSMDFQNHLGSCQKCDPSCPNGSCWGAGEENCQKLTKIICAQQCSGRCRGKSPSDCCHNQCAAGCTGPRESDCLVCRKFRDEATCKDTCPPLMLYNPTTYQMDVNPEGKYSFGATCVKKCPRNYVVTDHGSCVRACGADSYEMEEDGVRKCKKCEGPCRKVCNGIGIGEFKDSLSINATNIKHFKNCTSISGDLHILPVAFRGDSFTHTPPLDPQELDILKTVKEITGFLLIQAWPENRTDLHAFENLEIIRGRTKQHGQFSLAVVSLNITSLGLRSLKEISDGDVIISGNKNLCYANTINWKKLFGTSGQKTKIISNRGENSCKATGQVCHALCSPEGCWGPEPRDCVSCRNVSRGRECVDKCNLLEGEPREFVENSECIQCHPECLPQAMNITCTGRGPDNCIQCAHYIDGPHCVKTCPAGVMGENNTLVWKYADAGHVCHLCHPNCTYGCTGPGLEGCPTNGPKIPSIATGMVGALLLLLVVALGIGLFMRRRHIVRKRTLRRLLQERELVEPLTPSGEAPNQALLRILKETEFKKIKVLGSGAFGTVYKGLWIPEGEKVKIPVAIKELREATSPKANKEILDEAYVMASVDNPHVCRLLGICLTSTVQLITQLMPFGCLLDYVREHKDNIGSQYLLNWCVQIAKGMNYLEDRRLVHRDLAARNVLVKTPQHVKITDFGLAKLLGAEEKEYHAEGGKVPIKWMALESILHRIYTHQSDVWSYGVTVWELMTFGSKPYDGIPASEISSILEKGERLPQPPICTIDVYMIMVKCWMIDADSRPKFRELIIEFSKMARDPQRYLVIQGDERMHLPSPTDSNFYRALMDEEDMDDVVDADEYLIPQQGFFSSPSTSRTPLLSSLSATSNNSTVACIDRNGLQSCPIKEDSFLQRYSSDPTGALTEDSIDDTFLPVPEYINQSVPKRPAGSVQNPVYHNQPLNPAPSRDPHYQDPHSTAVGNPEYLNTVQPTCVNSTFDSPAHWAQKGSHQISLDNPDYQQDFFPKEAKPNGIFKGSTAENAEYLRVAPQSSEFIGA

Row | SMILES | IC50
1 | CNS(=O)(=O)Cc1ccc(Nc2ncnc(Nc3cc(-c4ccc(C(=O)OC)cc4)n[nH]3)n2)cc1 | 2.4 to 3.5 µg/mL (≈ 4.85 to 7.08 µM)
2 | CN(c1cccc(Cl)c1)c1ncnc(Nc2ccccc2)n1 | < 0.4 µg/mL
3 | CNS(=O)(=O)Cc1ccc(Nc2ncnc(Nc3ccc4c(cnn4Cc4ccccc4)c3)n2)cc1 | 0.4 to 2.4 µg/mL (≈ 0.799 to 4.79 µM)
4 | COc1cc(Nc2ncnc(N3CCc4ccc([N+](=O)[O-])cc43)n2)cc(OC)c1OC | > 4.5 µg/mL
5 | COc1cc(Nc2ncnc(N3CCC(O)CC3)n2)cc(OC)c1OC | > 4.5 µg/mL
6 | CN(c1cccc(Cl)c1)c1ncnc(Nc2cccc(OC(F)(F)F)c2)n1 | < 0.4 µg/mL
7 | COc1cc(Nc2ncnc(-c3ccc(F)cc3)n2)cc(OC)c1OC | > 4.5 µg/mL
8 | COc1cc(Nc2ncnc(-c3cccs3)n2)cc(OC)c1OC | > 4.5 µg/mL
9 | COc1cc(Nc2ncnc(Nc3ccc(C(N)=O)cc3)n2)cc(OC)c1OC | > 4.5 µg/mL
10 | COC(=O)c1cccc(Nc2ncnc(-n3c(NCc4ccc(OC)cc4)nc4ccccc43)n2)c1 | > 4.5 µg/mL
11 | COc1cc(Nc2ncnc(NC3CC3c3ccccc3)n2)cc(OC)c1OC (stereo not drawn) | < 0.4 µg/mL
12 | O=c1[nH]c2ccccc2n1-c1ncnc(Nc2ncccn2)n1 | > 4.5 µg/mL
13 | COc1cc(Nc2ncnc(N(C)c3cccc(Cl)c3)n2)cc(OC)c1OC | < 0.4 µg/mL
14 | COc1ccc(CNc2nc3ccccc3n2-c2ncnc(Nc3cccc(CC(=O)O)c3)n2)cc1 | > 4.5 µg/mL
15 | COc1cc(Nc2ncnc(-c3ccc(N4CCOCC4)nc3)n2)cc(OC)c1OC | > 4.5 µg/mL
16 | Cc1cc(Br)ccc1Nc1ncnc(-n2cccc2)n1 | > 4.5 µg/mL
17 | COc1cc(Nc2ncnc(-n3c(NCc4ccc(C)cc4C)nc4ccccc43)n2)cc(OC)c1OC | > 4.5 µg/mL and 2.4 to 3.5 µg/mL
18 | COc1cc(Nc2ncnc(-n3c(NCC(N)=O)nc4ccccc43)n2)cc(OC)c1OC | > 4.5 µg/mL
19 | COc1cc(C)c(Nc2ncnc(Nc3cc(-c4ccc(Cl)cc4)n[nH]3)n2)cc1OC | 3.5 to 4.5 µg/mL (≈ 7.99 to 10.3 µM)
20 | O=C(Nc1ccc(Nc2ncnc(-n3c(=O)[nH]c4ccccc43)n2)cc1)O[C@@H]1CCOC1 | > 4.5 µg/mL
21 | CC(C)(C)c1cc(Nc2ncnc(Nc3cccc(CO)c3)n2)[nH]n1 | 0.4 to 2.4 µg/mL (≈ 1.18 to 7.07 µM)
22 | COc1cc(Nc2ncnc(Nc3ccc(C(=O)O)cc3)n2)cc(OC)c1OC | 0.4 to 2.4 µg/mL (≈ 1.01 to 6.04 µM)
23 | COc1ccc(N(C)c2ncnc(Nc3cc(OC)c(OC)c(OC)c3)n2)cc1 | 0.4 to 2.4 µg/mL (≈ 1.01 to 6.04 µM)
24 | COc1cc(Nc2ncnc(-c3cccnc3CCN)n2)cc(OC)c1OC | > 4.5 µg/mL
25 | COc1cc(Nc2ncnc(-n3c(NCc4ccccc4F)nc4ccccc43)n2)cc(OC)c1OC | > 4.5 µg/mL
26 | O=C(O)Cc1cccc(Nc2ncnc(-n3c(NCc4ccccc4)nc4ccccc43)n2)c1 | < 0.4 µg/mL
27 | Clc1cccc(Nc2ncnc(-n3cccc3)n2)c1 | > 4.5 µg/mL

Row | SMILES | IC50
28 | COc1ccc(Nc2ncnc(Nc3cc(OC)c(OC)c(OC)c3)n2)cc1O | < 0.4 µg/mL
29 | COc1cc(Nc2ncnc(-n3cc(OC(C)=O)c4ccccc43)n2)cc(OC)c1OC | > 4.5 µg/mL
30 | c1csc(-c2ncnc(Nc3ccncc3)n2)c1 | > 4.5 µg/mL
31 | COc1ccc(Nc2ncnc(-n3c(N)nc4ccccc43)n2)cc1O | 2.4 to 3.5 µg/mL (≈ 6.87 to 10 µM)
32 | c1ccc(Cn2ncc3cc(Nc4ncnc(Nc5ncccn5)n4)ccc32)cc1 | 0.4 to 2.4 µg/mL (≈ 1.01 to 6.07 µM)
33 | CC(C)(C)c1ccc(Nc2ncnc(-n3c(N)nc4ccccc43)n2)cc1 | > 4.5 µg/mL
34 | O=C(O)c1cccc(Nc2ncnc(-n3c(NCc4ccccc4)nc4ccccc43)n2)c1 | < 0.4 µg/mL
35 | Fc1ccc(CNc2ncccc2-c2ncnc(Nc3cccc(Cn4ccnc4)c3)n2)cc1 | 0.4 to 2.4 µg/mL (≈ 0.884 to 5.3 µM)
36 | COc1cc(Nc2ncnc(-c3ccc(N4CCNCC4)nc3)n2)cc(OC)c1OC | 3.5 to 4.5 µg/mL (≈ 8.26 to 10.6 µM)
37 | COc1cc(Nc2ncnc(Nc3cc(Cl)c(O)c(Cl)c3)n2)cc(OC)c1OC | < 0.4 µg/mL
38 | c1ccc(-c2cc(Nc3ncnc(Nc4ccc5[nH]ncc5c4)n3)[nH]n2)cc1 | 0.4 to 2.4 µg/mL (≈ 1.08 to 6.5 µM)
39 | COc1cccc(Nc2ncccc2-c2ncnc(Nc3cc(OC)c(OC)c(OC)c3)n2)c1 | 3.5 to 4.5 µg/mL (≈ 7.6 to 9.77 µM)
40 | CN(c1cccc(Cl)c1)c1ncnc(Nc2ccc(F)c(C(F)(F)F)c2)n1 | 0.4 to 2.4 µg/mL (≈ 1.01 to 6.03 µM)
41 | O=S(=O)(O)c1cccc(Nc2ncnc(Nc3cc(-c4ccco4)[nH]n3)n2)c1 | < 0.4 µg/mL
42 | Cc1cccc(Nc2ncnc(N(C)c3cccc(Br)c3)n2)c1 | < 0.4 µg/mL
43 | COc1cc(Nc2ncnc(Nc3cccc4ccccc34)n2)cc(OCCN2CCOCC2)c1OC | < 0.4 µg/mL
44 | COc1cc(Nc2ncnc(Nc3cc(-c4ccc(Cl)cc4)n[nH]3)n2)cc(OC)c1OC | 2.4 to 3.5 µg/mL (≈ 5.29 to 7.71 µM)
45 | COc1cc(Nc2ncnc(Nc3cc(-c4ccc(Cl)c(Cl)c4)n[nH]3)n2)cc(OC)c1OC | 2.4 to 3.5 µg/mL (≈ 4.91 to 7.17 µM)
46 | COC(=O)c1ccc(-c2cc(Nc3ncnc(NCc4ccccc4OC)n3)[nH]n2)cc1 | > 4.5 µg/mL
47 | COC(=O)c1ccc(-c2cc(Nc3ncnc(NCc4cccnc4)n3)[nH]n2)cc1 | > 4.5 µg/mL
48 | CN(c1cccc(Cl)c1)c1ncnc(NCCN2CCCCC2)n1 | 2.4 to 3.5 µg/mL (≈ 6.92 to 10.1 µM)
49 | C#Cc1cccc(Nc2ncnc(-n3c(=O)[nH]c4ccccc43)n2)c1 | 0.4 to 2.4 µg/mL (≈ 1.22 to 7.31 µM)
50 | COc1cc(Nc2ncnc(Nc3cccc(Br)c3)n2)cc(OC)c1OC | < 0.4 µg/mL
51 | COc1cc(Nc2ncnc(NCc3ccccc3)n2)cc(OC)c1OC | < 0.4 µg/mL
52 | N#Cc1cccc(Nc2ncnc(-n3c(=O)[nH]c4ccccc43)n2)c1 | > 4.5 µg/mL
53 | COc1ccc(Nc2ncnc(-n3c(N)nc4ccccc43)n2)cc1OCCN1CCOCC1 | > 4.5 µg/mL
